Data taken from PubChem BioAssay AID2060621 (Molecular Pharmacology Branch, DTP, NCI, 2025).

Test system: 324938-238-R-J1-PDC complex spheroids viability
Experiment: Anticancer human tumor 324938-238-R-J1-PDC patient-derived bladder carcinoma cell line growth inhibition [CLK]
Conditions: for IC50: curve of first compound; for viability, T/C: stronger effect = lower value
Outline: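 Patient-derived tumor cells grown as complex spheroids with HUVEC endothelial cells and mesenchymal stem cells, treated with drug combinations. Concentrations descend in half-log steps from near clinical Cmax, or from 10 microM if Cmax unknown.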

[1] = second compound 0.0316 µM, first compound 0.0316 µM
[2] = second compound 0.0316 µM, first compound 0.1 µM
[3] = second compound 0.0316 µM, first compound 0.316 µM
[4] = second compound 0.0316 µM, first compound 1 µM
[5] = second compound 0.0316 µM, first compound 3.16 µM
[6] = second compound 0.0316 µM, first compound 10 µM
[7] = second compound 0.1 µM, first compound 0.0316 µM
[8] = second compound 0.1 µM, first compound 0.1 µM
[9] = second compound 0.1 µM, first compound 0.316 µM
[10] = second compound 0.1 µM, first compound 1 µM
[11] = second compound 0.1 µM, first compound 3.16 µM
[12] = second compound 0.1 µM, first compound 10 µM
[13] = second compound 0.316 µM, first compound 0.0316 µM
[14] = second compound 0.316 µM, first compound 0.1 µM
[15] = second compound 0.316 µM, first compound 0.316 µM
[16] = second compound 0.316 µM, first compound 1 µM
[17] = second compound 0.316 µM, first compound 3.16 µM
[18] = second compound 0.316 µM, first compound 10 µM
[19] = second compound 1 µM, first compound 0.0316 µM
[20] = second compound 1 µM, first compound 0.1 µM
[21] = second compound 1 µM, first compound 0.316 µM
[22] = second compound 1 µM, first compound 1 µM
[23] = second compound 1 µM, first compound 3.16 µM
[24] = second compound 1 µM, first compound 10 µM
[25] = second compound 3.16 µM, first compound 0.0316 µM
[26] = second compound 3.16 µM, first compound 0.1 µM
[27] = second compound 3.16 µM, first compound 0.316 µM
[28] = second compound 3.16 µM, first compound 1 µM
[29] = second compound 3.16 µM, first compound 3.16 µM
[30] = second compound 3.16 µM, first compound 10 µM
[31] = second compound 10 µM, first compound 0.0316 µM
[32] = second compound 10 µM, first compound 0.1 µM
[33] = second compound 10 µM, first compound 0.316 µM
[34] = second compound 10 µM, first compound 1 µM
[35] = second compound 10 µM, first compound 3.16 µM
[36] = second compound 10 µM, first compound 10 µM
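Note: viability read after seven days of drug exposure.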
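Throughout, for viability, T/C: 100% = DMSO vehicle control wells.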

SMILES: CC1COCCN1c1cc(C2(S(C)(=N)=O)CC2)nc(-c2ccnc3[nH]ccc23)n1 (stereo not drawn) + CN1CCN(c2cc(C(=O)Nc3cc4cc(-c5cnn(C)c5)ccc4cn3)ccn2)CC1
- IC50 (second compound 0.0316 µM): 1100 nM
- IC50 (second compound 0.1 µM): 400 nM
- IC50 (second compound 0.316 µM): < 31.6 nM
- IC50 (second compound 1 µM): < 31.6 nM
- IC50 (second compound 3.16 µM): < 31.6 nM
- IC50 (second compound 10 µM): < 31.6 nM
- viability, T/C [1]: 80.1%
- viability, T/C [2]: 79.7%
- viability, T/C [3]: 70%
- viability, T/C [4]: 51.8%
- viability, T/C [5]: 28.8%
- viability, T/C [6]: 14.8%
- viability, T/C [7]: 55.3%
- viability, T/C [8]: 52.7%
- viability, T/C [9]: 55.3%
- viability, T/C [10]: 39.8%
- viability, T/C [11]: 22.9%
- viability, T/C [12]: 11.5%
- viability, T/C [13]: 24.8%
- viability, T/C [14]: 24.1%
- viability, T/C [15]: 19%
- viability, T/C [16]: 21.9%
- viability, T/C [17]: 16.1%
- viability, T/C [18]: 11.4%
- viability, T/C [19]: 1.54%
- viability, T/C [20]: 1.37%
- viability, T/C [21]: 1.72%
- viability, T/C [22]: 1.08%
- viability, T/C [23]: 1.06%
- viability, T/C [24]: 0.6%
- viability, T/C [25]: 0.25%
- viability, T/C [26]: 0.15%
- viability, T/C [27]: 0.19%
- viability, T/C [28]: 0.16%
- viability, T/C [29]: 0.16%
- viability, T/C [30]: 1.37%
- viability, T/C [31]: 0.16%
- viability, T/C [32]: 0.17%
- viability, T/C [33]: 0.21%
- viability, T/C [34]: 0.16%
- viability, T/C [35]: 0.22%
- viability, T/C [36]: 0.22%

SMILES: NC(=O)C(=Cn1cnc(-c2cc(C(F)(F)F)cc(C(F)(F)F)c2)n1)c1cncnc1 + CN1CCN(c2cc(C(=O)Nc3cc4cc(-c5cnn(C)c5)ccc4cn3)ccn2)CC1
- IC50 (second compound 0.0316 µM): 44.9 nM
- IC50 (second compound 0.1 µM): < 9.49 nM
- IC50 (second compound 0.316 µM): < 9.49 nM
- IC50 (second compound 1 µM): < 9.49 nM
- IC50 (second compound 3.16 µM): < 9.49 nM
- IC50 (second compound 10 µM): < 9.49 nM
- viability, T/C (second compound 0.0316 µM, first compound 0.00949 µM): 73.6%
- viability, T/C (second compound 0.0316 µM, first compound 0.03 µM): 56.1%
- viability, T/C (second compound 0.0316 µM, first compound 0.0949 µM): 37.3%
- viability, T/C (second compound 0.0316 µM, first compound 0.3 µM): 11.8%
- viability, T/C (second compound 0.0316 µM, first compound 0.949 µM): 4.81%
- viability, T/C (second compound 0.0316 µM, first compound 3 µM): 2.71%
- viability, T/C (second compound 0.1 µM, first compound 0.00949 µM): 47.5%
- viability, T/C (second compound 0.1 µM, first compound 0.03 µM): 37.8%
- viability, T/C (second compound 0.1 µM, first compound 0.0949 µM): 26%
- viability, T/C (second compound 0.1 µM, first compound 0.3 µM): 8.9%
- viability, T/C (second compound 0.1 µM, first compound 0.949 µM): 3.44%
- viability, T/C (second compound 0.1 µM, first compound 3 µM): 1.05%
- viability, T/C (second compound 0.316 µM, first compound 0.00949 µM): 21.6%
- viability, T/C (second compound 0.316 µM, first compound 0.03 µM): 13.4%
- viability, T/C (second compound 0.316 µM, first compound 0.0949 µM): 11.1%
- viability, T/C (second compound 0.316 µM, first compound 0.3 µM): 1.12%
- viability, T/C (second compound 0.316 µM, first compound 0.949 µM): 0.14%
- viability, T/C (second compound 0.316 µM, first compound 3 µM): 0.06%
- viability, T/C (second compound 1 µM, first compound 0.00949 µM): 0.21%
- viability, T/C (second compound 1 µM, first compound 0.03 µM): 0.17%
- viability, T/C (second compound 1 µM, first compound 0.0949 µM): 0.15%
- viability, T/C (second compound 1 µM, first compound 0.3 µM): 0.09%
- viability, T/C (second compound 1 µM, first compound 0.949 µM): 0.08%
- viability, T/C (second compound 1 µM, first compound 3 µM): 0.09%
- viability, T/C (second compound 3.16 µM, first compound 0.00949 µM): 0.09%
- viability, T/C (second compound 3.16 µM, first compound 0.03 µM): 0.13%
- viability, T/C (second compound 3.16 µM, first compound 0.0949 µM): 0.16%
- viability, T/C (second compound 3.16 µM, first compound 0.3 µM): 0.12%
- viability, T/C (second compound 3.16 µM, first compound 0.949 µM): 0.12%
- viability, T/C (second compound 3.16 µM, first compound 3 µM): 0.11%
- viability, T/C (second compound 10 µM, first compound 0.00949 µM): 0.07%
- viability, T/C (second compound 10 µM, first compound 0.03 µM): 0.12%
- viability, T/C (second compound 10 µM, first compound 0.0949 µM): 0.23%
- viability, T/C (second compound 10 µM, first compound 0.3 µM): 0.16%
- viability, T/C (second compound 10 µM, first compound 0.949 µM): 0.18%
- viability, T/C (second compound 10 µM, first compound 3 µM): 0.21%

SMILES: CC(Nc1ccc2c(c1)OCCn1cc(N3C(=O)OCC3C(F)F)nc1-2)C(N)=O (stereo not drawn) + CN1CCN(c2cc(C(=O)Nc3cc4cc(-c5cnn(C)c5)ccc4cn3)ccn2)CC1
- IC50 (second compound 0.0316 µM): 167 nM
- IC50 (second compound 0.1 µM): < 31.6 nM
- IC50 (second compound 0.316 µM): < 31.6 nM
- IC50 (second compound 1 µM): < 31.6 nM
- IC50 (second compound 3.16 µM): < 31.6 nM
- IC50 (second compound 10 µM): < 31.6 nM
- viability, T/C [1]: 65.8%
- viability, T/C [2]: 58.5%
- viability, T/C [3]: 40%
- viability, T/C [4]: 29.9%
- viability, T/C [5]: 24.4%
- viability, T/C [6]: 15.8%
- viability, T/C [7]: 48.2%
- viability, T/C [8]: 40%
- viability, T/C [9]: 29.6%
- viability, T/C [10]: 26.5%
- viability, T/C [11]: 23.3%
- viability, T/C [12]: 15.5%
- viability, T/C [13]: 21.3%
- viability, T/C [14]: 20.8%
- viability, T/C [15]: 15.2%
- viability, T/C [16]: 14.1%
- viability, T/C [17]: 11.8%
- viability, T/C [18]: 9.85%
- viability, T/C [19]: 1.49%
- viability, T/C [20]: 2.08%
- viability, T/C [21]: 1.71%
- viability, T/C [22]: 0.86%
- viability, T/C [23]: 0.52%
- viability, T/C [24]: 0.51%
- viability, T/C [25]: 0.1%
- viability, T/C [26]: 0.15%
- viability, T/C [27]: 0.14%
- viability, T/C [28]: 0.1%
- viability, T/C [29]: 0.16%
- viability, T/C [30]: 0.18%
- viability, T/C [31]: 0.07%
- viability, T/C [32]: 0.14%
- viability, T/C [33]: 0.19%
- viability, T/C [34]: 0.12%
- viability, T/C [35]: 0.17%
- viability, T/C [36]: 0.2%

SMILES: COc1cccc2c1C(=O)c1c(O)c3c(c(O)c1C2=O)CC(O)(C(=O)CO)CC3OC1CC(N)C(O)C(C)O1 (stereo not drawn) + CN1CCN(c2cc(C(=O)Nc3cc4cc(-c5cnn(C)c5)ccc4cn3)ccn2)CC1
- IC50 (second compound 0.0316 µM): < 31.6 nM
- IC50 (second compound 0.1 µM): < 31.6 nM
- IC50 (second compound 0.316 µM): < 31.6 nM
- IC50 (second compound 1 µM): < 31.6 nM
- IC50 (second compound 3.16 µM): < 31.6 nM
- IC50 (second compound 10 µM): < 31.6 nM
- viability, T/C [1]: 19.4%
- viability, T/C [2]: 14.4%
- viability, T/C [3]: 8.3%
- viability, T/C [4]: 0.88%
- viability, T/C [5]: 0.09%
- viability, T/C [6]: 0.14%
- viability, T/C [7]: 16.9%
- viability, T/C [8]: 16.5%
- viability, T/C [9]: 8.06%
- viability, T/C [10]: 0.56%
- viability, T/C [11]: 0.09%
- viability, T/C [12]: 0.68%
- viability, T/C [13]: 17.8%
- viability, T/C [14]: 16.2%
- viability, T/C [15]: 4.21%
- viability, T/C [16]: 0.29%
- viability, T/C [17]: 0.07%
- viability, T/C [18]: 0.12%
- viability, T/C [19]: 0.37%
- viability, T/C [20]: 0.2%
- viability, T/C [21]: 0.1%
- viability, T/C [22]: 0.09%
- viability, T/C [23]: 0.35%
- viability, T/C [24]: 0.44%
- viability, T/C [25]: 0.12%
- viability, T/C [26]: 0.28%
- viability, T/C [27]: 0.17%
- viability, T/C [28]: 0.06%
- viability, T/C [29]: 0.22%
- viability, T/C [30]: 0.3%
- viability, T/C [31]: 0.09%
- viability, T/C [32]: 0.18%
- viability, T/C [33]: 0.26%
- viability, T/C [34]: 0.1%
- viability, T/C [35]: 0.15%
- viability, T/C [36]: 0.48%
